# Experimental data from the supplement of paper PMC11208160.
# Experiment: recombinant UMI read abundance after kanamycin selection (control-corrected) (log10(CPM+1)); higher = more efficient recombination; extreme values may be limits of the assay; sequences stand for … in AGTGCAGAGAAAATCGGCCAGTTTTCTCTGCCTGCAGTCCGCATGCCGTGGGACCCCTTGGGTTCTAACCTGTTGCCTAGATTTATGCAGCGGACTGCCTTTCTCCCAAAGTGATAAACCGG…AGGTTGGTTTCACT; site = the 11-nt donor
# How it was run: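 Two replicates each of selected and unselected plating were used in this pooled Escherichia coli screen of donor and donor-binding-loop pairs for the IS621 bridge recombinase. Selection was with IPTG (0.07 mM) and kanamycin. Counts of recombinant UMIs, amplified across the donor–target junction, were converted to CPM, averaged, scaled by control-derived factors and reported as log10(CPM+1).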
# 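Further: IS621 bridge recombinase in Escherichia coli cells against a fixed T5 target plasmid.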
row,Sequence,recombinant UMI read abundance (log10)
1,GGTCAAACATGGACCGGTTTTCCCGGTAATCCGTATTTGTA (site GGTCTAACTTA),0.0103
2,GCTACGCCATGGACCGGTTTTCCCGGTAATCCGTATTTGTA (site GCCACGCCTTA),0.0278
3,AGTTGATCATGGACCGGTTTTCCCGGTAATCCGTATTTGTC (site AGTTGATCTGA),1.94
4,CGAGGAGCATGGACCGGTTTTCCCGGTAATCCGTATTTGGG (site CGAGGATCTCC),0.704
5,CCATTAGCATGGACCGGTTTTCCCGGTAATCCGTATTTGTG (site CCATTAGCTCA),0.183
6,ATGGAGACATGGACCGGTTTTCCCGGTAATCCGTATTTGGT (site ATAGAGACTAC),1.66
7,AACTATACATGGACCGGTTTTCCCGGTAATCCGTATTTGAC (site AACTATACTGT),2.31
8,CCTGTCGCATGGACCGGTTTTCCCGGTAATCCGTATTTGAA (site CCTGTCGCTTT),0.0175
9,GGTACGTCATGGACCGGTTTTCCCGGTAATCCGTATTTGCT (site GGTACGTCTAG),2
10,GGTGCAGCATGGACCGGTTTTCCCGGTAATCCGTATTTGGA (site GGTGCAGCTTC),0.0152
11,GTGTATACATGGACCGGTTTTCCCGGTAATCCGTATTTGCT (site GTGTATACTAG),2.44
12,TCCGATGCATGGACCGGTTTTCCCGGTAATCCGTATTTGTT (site TCCGATGCTAA),0
13,ACAGTATCATGGACCGGTTTTCCCGGTAATCCGTATTTGCT (site ACAGTATCTCG),1.11
14,TGGAATCCATGGACCGGTTTTCCCGGTAATCCGTATTTGTT (site TGGAATCCTAA),0
15,AAAACTTCATGGACCGGTTTTCCCGGTAATCCGTATTTGTC (site AAAACTTCTGA),0
16,GTTAAAACATGGACCGGTTTTCCCGGTAATCCGTATTTGGC (site GTTAAAACTGC),0
17,AAGTCGTCATGGACCGGTTTTCCCGGTAATCCGTATTTGCG (site AAGTCGTCTCG),1.19
18,CGGGAACCATGGACCGGTTTTCCCGGTAATCCGTATTTGCT (site CGGGAACCTAA),0
19,GTTGTTCCATGGACCGGTTTTCCCGGTAATCCGTATTTGCT (site GTTGTTCCTAC),0.0126
20,GGGATTGCATGGACCGGTTTTCCCGGTAATCCGTATTTGAC (site GGGATTGCTGT),2.05
21,GGCCACCCATGGACCGGTTTTCCCGGTAATCCGTATTTGTT (site CGCCACCCTAA),0.181
22,GGATCGACATGGACCGGTTTTCCCGGTAATCCGTATTTGCC (site GGATGGACTGG),0
23,ACGCATCCATGGACCGGTTTTCCCGGTAATCCGTATTTGAC (site ACGCATCCTGT),1.8
24,GCCAAGCCATGGACCGGTTTTCCCGGTAATCCGTATTTGGG (site GCCAAGCCTCC),0.0135
25,TGTCCACCATGGACCGGTTTTCCCGGTAATCCGTATTTGAC (site TGTCCACCTGT),0

row,Sequence,recombinant UMI read abundance (log10)
1,TACTTGACATGGACCGGTTTTCCCGGTAATCCGTATTTGGT (site TACTTGACTAA),0.109
2,GGGTGTGCATGGACCGGTTTTCCCGGTAATCCGTATTTGGC (site GGGTGTGCTGC),3
3,TTGTCGACATGGACCGGTTTTCCCGGTAATCCGTATTTGTC (site TTGTCGACTGA),0.433
4,ACTGCACCATGGACCGGTTTTCCCGGTAATCCGTATTTGAG (site ACTGCACCTCT),0.0235
5,CAATCGCCATGGACCGGTTTTCCCGGTAATCCGTATTTGTG (site CAATCGCCTCA),0.22
6,CCCGGTCCATGGACCGGTTTTCCCGGTAATCCGTATTTGCA (site CCCGGCCCTTG),0
7,GACGACGCATGGACCGGTTTTCCCGGTAATCCGTATTTGTC (site GACGACGCTGA),2.6
8,GGCCACCCATGGACCGGTTTTCCCGGTAATCCGTATTTGTC (site GGCCACCCTAA),0.133
9,ATGTAGTCATGGACCGGTTTTCCCGGTAATCCGTATTTGGC (site ATGTAGCCTGC),0
10,CTTTCTCCATGGACCGGTTTTCCCGGTAATCCGTATTTGCT (site CTTTCTCCTAG),1.82
11,CAAACAGCATGGACCGGTTTTCCCGGTAATCCGTATTTGCT (site CAATCAGCTAG),0
12,CCCGGTCCATGGACCGGTTTTCCCGGTAATCCGTATTTGCA (site CCCGGTACTTG),0
13,ATGTCGTCATGGACCGGTTTTCCCGGTAATCCGTATTTGTA (site ATGTCGTCTTA),1.95
14,CGAGGTGCATGGACCGGTTTTCCCGGTAATCCGTATTTGAT (site CCAGGTGCTAT),1.37
15,TAGCCTTCATGGACCGGTTTTCCCGGTAATCCGTATTTGTT (site TAGCCTTCTAC),0.0119
16,AGGAAGACATGGACCGGTTTTCCCGGTAATCCGTATTTGCA (site AGGAAGCCTTT),0
17,AGGAAGACATGGACCGGTTTTCCCGGTAATCCGTATTTGCA (site ACGATGACTTG),0
18,GTTAGAACATGGACCGGTTTTCCCGGTAATCCGTATTTGGG (site GTTAGAACTCC),0.172
19,CCTTACGCATGGACCGGTTTTCCCGGTAATCCGTATTTGGC (site CCTTACGCTGC),0
20,GCCTCCTCATGGACCGGTTTTCCCGGTAATCCGTATTTGCT (site GCCTCCTCTAG),2.9
21,ATGACTGCATGGACCGGTTTTCCCGGTAATCCGTATTTGTC (site ATGACTGCTGA),1.47
22,ATGACTACATGGACCGGTTTTCCCGGTAATCCGTATTTGAC (site AAGACTACTGT),0.508
23,CAGCATGCATGGACCGGTTTTCCCGGTAATCCGTATTTGAA (site CAGCATGCTTT),2.7
24,CTAGTAGCATGGACCGGTTTTCCCGGTAATCCGTATTTGAC (site CTAGTAGCTGT),2.87
25,TACTTGACATGGACCGGTTTTCCCGGTAATCCGTATTTGGT (site TACTTGACTAT),0.179

row,Sequence,recombinant UMI read abundance (log10)
1,GCTTATCCATGGACCGGTTTTCCCGGTAATCCGTATTTGCT (site GATTATCCTAG),0
2,TCGCCTGCATGGACCGGTTTTCCCGGTAATCCGTATTTGGT (site TCGCCTGCTAC),0.0077
3,CCCGGTCCATGGACCGGTTTTCCCGGTAATCCGTATTTGCA (site CCCGGTGCTTG),0
4,CTACTTTCATGGACCGGTTTTCCCGGTAATCCGTATTTGAC (site CTACTTTCTGT),1.94
5,AGGAAGACATGGACCGGTTTTCCCGGTAATCCGTATTTGCA (site GGCAAGACTTG),2.22
6,CTCACTCCATGGACCGGTTTTCCCGGTAATCCGTATTTGTA (site CTCACTCCTTA),0.981
7,GTGTTCTCATGGACCGGTTTTCCCGGTAATCCGTATTTGAA (site GTGTTCTCTTT),2.52
8,CCGTTAGCATGGACCGGTTTTCCCGGTAATCCGTATTTGTG (site CCATTAGCTCA),0.434
9,CGGAATTCATGGACCGGTTTTCCCGGTAATCCGTATTTGCT (site CGGAATTCTAG),2.45
10,CTGGATACATGGACCGGTTTTCCCGGTAATCCGTATTTGCA (site CTGGAAACTTG),1.14
11,GAGGTCACATGGACCGGTTTTCCCGGTAATCCGTATTTGAT (site GAGCTCACTAT),0.00889
12,CTAGGATCATGGACCGGTTTTCCCGGTAATCCGTATTTGAC (site CTAGTATCTGT),1.35
13,GTCTTACCATGGACCGGTTTTCCCGGTAATCCGTATTTGCC (site GTCTTACCTGG),0
14,CGCTCATCATGGACCGGTTTTCCCGGTAATCCGTATTTGGT (site CGCTCATCTAC),1.17
15,CCCCCTACATGGACCGGTTTTCCCGGTAATCCGTATTTGAG (site CACCCTACTCT),0.0202
16,ACGTAGGCATGGACCGGTTTTCCCGGTAATCCGTATTTGGC (site AAGTAGGCTGC),1.32
17,CGGATATCATGGACCGGTTTTCCCGGTAATCCGTATTTGCT (site CGGACATCTAG),0
18,ATCTAGACATGGACCGGTTTTCCCGGTAATCCGTATTTGAC (site ATCTAGACTGT),2.68
19,ACACCTACATGGACCGGTTTTCCCGGTAATCCGTATTTGTG (site ACAGCTACTCA),0.0267
20,TAAGTTGCATGGACCGGTTTTCCCGGTAATCCGTATTTGTG (site TAAGTTGCTCA),1.4
21,TACCCTTCATGGACCGGTTTTCCCGGTAATCCGTATTTGGT (site TAGCCTTCTAC),0.0115
22,GGTAGCGCATGGACCGGTTTTCCCGGTAATCCGTATTTGTT (site GGTAGCGCTAA),1.5
23,AGAGTATCATGGACCGGTTTTCCCGGTAATCCGTATTTGCC (site ACAGTATCTTG),0
24,GGGGCCCCATGGACCGGTTTTCCCGGTAATCCGTATTTGCA (site GGGGCGCCTTG),0.0155
25,GGATAGTCATGGACCGGTTTTCCCGGTAATCCGTATTTGCC (site GGATAGACTGG),2.31
